Paper PMC7311426, “An amphipathic peptide with antibiotic activity against multidrug-resistant Gram-negative bacteria” (Nature Communications, 2020)
Converted amounts (≈) assume the structure as drawn. Read-outs that look alike come from different tables or passages of the source.

Assays:
[1] = test system: K. pneumoniae clinical isolates; assay: microbe, parasite or virus in culture
In short: (§1)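 MIC90 from CLSI broth microdilution (M07-A9) in two clinical-isolate panels. US panel (331 isolates, 2010-2012): AA139 diluted in 0.01% acetic acid/0.1% BSA. Worldwide panel (445 isolates, 2011-2013, four regions): CAMHB, with 0.002% Tween 80 added for AA139 and polymyxin B.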

[2] = test system: P. aeruginosa clinical isolates; assay: microbe, parasite or virus in culture
In short: as §1

[3] = test system: E. coli clinical isolates; assay: microbe, parasite or virus in culture
In short: as §1

[4] = test system: P. aeruginosa (UNT138-1 & ATCC 27853); assay: microbe, parasite or virus in culture; format: cell-based, Pseudomonas aeruginosa; details: Pseudomonas aeruginosa, ATCC27853, read-out: Agar (Noble) Dilution MIC, P. aeruginosa ATCC 27853
Protocol: (§2) The test media was cation-adjusted MHB (CAMHB, Becton Dickinson) supplemented with 2% Noble Agar (Becton Dickinson) and additionally for AA139 with 0.1% BSA. The agar dilution MIC values were determined as recommended by Clinical and Laboratory Standards Institute (CLSI)[47]. […] The inoculum for the spontaneous mutation plates targeted 10^9 to 10^10 colony-forming units (CFU) per plate. The viable count of each suspension was determined by plating serial ten-fold dilutions onto MHB/NA in duplicate. In addition, agar plates without drug were inoculated as positive controls. Plates were inspected for growth at both 24 and 48 h. Colony counts were determined manually. Using the counts at 48 h, the spontaneous mutation frequency was calculated using the following equation: (average number of colonies from duplicate selection plates)/(total number of cells inoculated onto each plate). If there were no colonies on the antibiotic selection plates, the spontaneous mutation frequency was reported as less than the frequency observed with one colony to indicate that the spontaneous mutation frequency was less than the limit of detection (one CFU).

[5] = test system: E. coli (AID#172 & ATCC 25922); assay: microbe, parasite or virus in culture; format: cell-based, Escherichia coli; details: Escherichia coli
Protocol: as §2

E. coli = test system: E. coli; parameters: method as in Hasman H, et al. Euro. Surveill. (2015) 20:49; details: E. coli ESBL20150072, mcr-1 pos; ESBL; CAMHB; comparator antibiotics; ref Hasman H, et al. Euro. Surveill. (2015) 20:49; cited from earlier work
L. monocytogenes = assay: microbe, parasite or virus in culture
In short: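 MICs were scored by eye after 18-20 h static incubation at 37 °C, with bacteria at 5 × 10^5 CFU mL^−1 in MHB. Peptides were serially diluted 2-fold over 12 points, top 128 or 64 μg mL^−1. CAMHB (CLSI) and 1% agarose-MHB variants were also run, at least six replicates.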

P. aeruginosa = assay: microbe, parasite or virus in culture; format: cell-based, Pseudomonas aeruginosa; parameters: MIC, Survanta (5%) replicates: unit not given beside the values; details: for MIC: Pseudomonas aeruginosa
[6] = Worldwide isolates 2011-2013, K. pneumoniae n = 114
[7] = Worldwide isolates 2011-2013, P. aeruginosa n = 111
[8] = Worldwide isolates 2011-2013, E. coli n = 112
[9] = P. aeruginosa FADDI-070, MDR, PmxR, BMD with 5% Survanta lung surfactant, mode, or median where no mode, n=4 to 6, where n=2 differs the higher value
[10] = P. aeruginosa FADDI-070, MDR, PmxR, BMD with 5% Survanta lung surfactant, replicate 1
[11] = P. aeruginosa FADDI-070, MDR, PmxR, BMD with 5% Survanta lung surfactant, replicate 2
[12] = P. aeruginosa FADDI-070, MDR, PmxR, BMD with 5% Survanta lung surfactant, replicate 3
[13] = P. aeruginosa FADDI-070, MDR, PmxR, BMD with 5% Survanta lung surfactant, replicate 4
[14] = P. aeruginosa FADDI-070, MDR, PmxR, BMD with 50% human serum, replicate 1
[15] = P. aeruginosa FADDI-070, MDR, PmxR, BMD with 50% human serum, replicate 2
[16] = P. aeruginosa FADDI-070, MDR, PmxR, BMD with 50% human serum, where n=2 differs the higher value is recorded

C[C@H]1COc2c(N3CCN(C)CC3)c(F)cc3c(=O)c(C(=O)O)cn1c23 [LEV, levofloxacin, reference compound]
MIC90 ([1]; Klebsiella pneumoniae): > 32 µg/mL | MIC50 [1, 6]: 0.25 µg/mL (≈ 0.692 µM) | MIC90 [1, 6]: > 32 µg/mL | MIC90 ([2]; Pseudomonas aeruginosa): > 32 µg/mL | MIC90 [2, 7]: > 32 µg/mL | MIC90 ([3]; Escherichia coli): 16 µg/mL (≈ 44.3 µM) | MIC50 [3, 8]: 0.06 µg/mL (≈ 0.166 µM) | MIC90 [3, 8]: 16 µg/mL (≈ 44.3 µM) | MIC [4]: 2 µg/mL (≈ 5.53 µM) | MIC ([5]; ATCC25922, read-out: Agar (Noble) Dilution MIC, E. coli ATCC 25922): 0.03 µg/mL (≈ 0.083 µM) | MIC ([5]; ATCC25922, read-out: Agar (Noble) Dilution MIC, E. coli AUD172): 8 µg/mL (≈ 22.1 µM)

polymyxin B [PolymyxinB, reference compound]
BMD MIC (E. coli): 4 µg/mL | MIC50 [1, 6]: 0.03 µg/mL | MIC90 [1, 6]: 0.06 µg/mL | MIC50 [2, 7]: 0.12 µg/mL | MIC90 [2, 7]: 0.25 µg/mL | MIC50 [3, 8]: 0.03 µg/mL | MIC90 [3, 8]: 0.03 µg/mL | BMD MIC (L. monocytogenes; L. monocytogenes ATCC 19112, MHB, mode of 6 replicates): 4 µg/mL

COc1cc(Cc2cnc(N)nc2N)cc(OC)c1OC [Trimethoprim]
MIC, Serum (50%) (P. aeruginosa): >64 | MIC, Serum (50%) replicates (P. aeruginosa): >64 | MIC, Survanta (5%) (P. aeruginosa): >64 | MIC, Survanta (5%) replicates (P. aeruginosa): >64 | MIC, Survanta (5%) (P. aeruginosa; [9]): >64 | MIC, Survanta (5%) replicates (P. aeruginosa; [10]): >64 | MIC, Survanta (5%) replicates (P. aeruginosa; [11]): >64 | MIC, Survanta (5%) replicates (P. aeruginosa; [12]): >64 | MIC, Survanta (5%) replicates (P. aeruginosa; [13]): >64 | MIC, Serum (50%) replicates (P. aeruginosa; [14]): >64 | MIC, Serum (50%) replicates (P. aeruginosa; [15]): 64 | MIC, Serum (50%) (P. aeruginosa; [16]): ≥64 | MIC (P. aeruginosa; ATCC27853, read-out: MIC, Serum (50%)): > 64 µg/mL | MIC (P. aeruginosa; ATCC27853, read-out: MIC, Survanta (5%)): > 64 µg/mL | MIC (P. aeruginosa; read-out: MIC, Serum (50%)): ≥ 64 µg/mL | MIC (P. aeruginosa; read-out: MIC, Survanta (5%)): > 64 µg/mL

O=C(O)c1cn(C2CC2)c2cc(N3CCNCC3)c(F)cc2c1=O [Ciprofloxacin, ciprofloxacin]
MIC, Survanta (5%) (P. aeruginosa; P. aeruginosa ATCC 27853, control strain, BMD with 5% Survanta lung surfactant, mode, or median where no mode, n=4 to 6, where n=2 differs the higher value): 1 | MIC, Survanta (5%) replicates (P. aeruginosa; P. aeruginosa ATCC 27853, control strain, BMD with 5% Survanta lung surfactant, replicate 1): 1 | MIC, Survanta (5%) replicates (P. aeruginosa; P. aeruginosa ATCC 27853, control strain, BMD with 5% Survanta lung surfactant, replicate 2): 1 | MIC, Survanta (5%) replicates (P. aeruginosa; P. aeruginosa ATCC 27853, control strain, BMD with 5% Survanta lung surfactant, replicate 3): 0.5 | MIC, Survanta (5%) replicates (P. aeruginosa; P. aeruginosa ATCC 27853, control strain, BMD with 5% Survanta lung surfactant, replicate 4): 0.5 | MIC, Serum (50%) replicates (P. aeruginosa; P. aeruginosa ATCC 27853, control strain, BMD with 50% human serum, replicate 1): 0.125 | MIC, Survanta (5%) (P. aeruginosa; [9]): 0.5 | MIC, Survanta (5%) replicates (P. aeruginosa; [10]): 1 | MIC, Survanta (5%) replicates (P. aeruginosa; [11]): 1 | MIC, Survanta (5%) replicates (P. aeruginosa; [12]): 0.125 | MIC, Survanta (5%) replicates (P. aeruginosa; [13]): 0.5 | MIC, Serum (50%) replicates (P. aeruginosa; [14]): 0.06 | MIC, Serum (50%) replicates (P. aeruginosa; [15]): 0.06 | MIC, Serum (50%) (P. aeruginosa; [16]): 0.06 | MIC (P. aeruginosa; ATCC27853, read-out: MIC, Survanta (5%), P. aeruginosa ATCC 27853 control strain, n=2 to 6, mode or median): 1 µg/mL (≈ 3.02 µM) | MIC (P. aeruginosa; read-out: MIC, Serum (50%)): 0.06 µg/mL (≈ 0.181 µM) | MIC (P. aeruginosa; read-out: MIC, Survanta (5%)): 0.5 µg/mL (≈ 1.51 µM) | BMD MIC (E. coli): >2 µg/mL

CNC(C)C1CCC(N)C(OC2C(N)CC(N)C(OC3OCC(C)(O)C(NC)C3O)C2O)O1 (centres unmarked) [Gentamicin, gentamicin, reference compound]
BMD MIC (E. coli): >8 µg/mL | MIC90 ([1]; Klebsiella pneumoniae, US isolates 2010–2012, K. pneumoniae Non-MDR, n = 24): 8 µg/mL (≈ 16.8 µM) | MIC90 ([1]; Klebsiella pneumoniae, US isolates 2010–2012, K. pneumoniae XDR, n = 55): > 32 µg/mL | MIC50 [1, 6]: 0.5 µg/mL (≈ 1.05 µM) | MIC90 [1, 6]: > 32 µg/mL | MIC90 ([2]; Pseudomonas aeruginosa, US isolates 2010–2012, P. aeruginosa Non-MDR, n = 41): > 32 µg/mL | MIC90 ([2]; Pseudomonas aeruginosa, US isolates 2010–2012, P. aeruginosa XDR, n = 37): > 32 µg/mL | MIC50 [2, 7]: 2 µg/mL (≈ 4.19 µM) | MIC90 [2, 7]: > 32 µg/mL | MIC90 ([3]; Escherichia coli): 32 µg/mL (≈ 67 µM) | MIC90 ([3]; Escherichia coli, US isolates 2010–2012, E. coli MDR, n = 31): > 32 µg/mL | MIC90 ([3]; Escherichia coli, US isolates 2010–2012, E. coli Non-MDR, n = 24): 8 µg/mL (≈ 16.8 µM) | MIC50 [3, 8]: 0.5 µg/mL (≈ 1.05 µM) | MIC90 [3, 8]: 32 µg/mL (≈ 67 µM) | MIC (L. monocytogenes; Listeria monocytogenes, ATCC19112, read-out: BMD MIC): 0.125 µg/mL (≈ 0.262 µM)
